US8871756B2 (Hoffmann-La Roche Inc., priority 2011, dated 2014)

Test system: RSV Long strain
Test: Viral cytopathic effect (CPE) assay, anti-RSV activity
Type: cell-based, Respiratory Syncytial Virus
Conditions: RSV Long strain (ATCC); cell viability after 6 days, Cell Counting kit-8
Outline: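 EC50 was derived from CCK-8 viability at 450/630 nm measured 6 days post-infection. Infection used enough RSV Long strain for approximately 80–90% cytopathic effect, in the presence of half-log serially diluted compound. Cells were plated the day before at 6×10^3 per well in DMEM/10% FBS.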

SMILES	EC50 [µM]
Cc1ccc2nc(N3CC[S+]([O-])c4ccccc4C3)nc(NCC3(CN)COC3)c2c1 (single isomer, unassigned; (+)) [Example 62-3, (+)-N-{[3-(Aminomethyl)oxetan-3-yl]methyl}-6-methyl-2-[1-oxido-2,3-dihydro-1,4-benzothiazepin-4(5H)-yl]quinazolin-4-amine]	0.0013

Same assay, conditions: human respiratory syncytial virus, 144 h, RSV Long strain (ATCC); cell viability after 6 days, Cell Counting kit-8

SMILES	EC50 [µM]
N#Cc1ccc2nc(N3CCS(=O)(=O)c4ccccc4C3)cc(NCCCN)c2c1 [Example 52, 4-[(3-Aminopropyl)amino]-2-(1,1-dioxido-2,3-dihydro-1,4-benzothiazepin-4(5H)-yl)quinoline-6-carbonitrile]	0.419
NCC1(CNc2nc(N3CCS(=O)(=O)c4ccccc4C3)nc3ccc(C(=O)O)cc23)COC1 [Example 108-2, 4-({[3-(Aminomethyl)oxetan-3-yl]methyl}amino)-2-(1,1-dioxido-2,3-dihydro-1,4-benzothiazepin-4(5H)-yl)quinazoline-6-carboxylic acid]	2.47
Cc1ccc2nc(N3CCS(=O)(=O)c4ccccc4C3)cc(N3CC(N)C4(COC4)C3)c2c1 (stereo not shown) [Example 23, 6-[2-(1,1-Dioxido-2,3-dihydro-1,4-benzothiazepin-4(5 H)-yl)-6-methylquinolin-4-yl]-2-oxa-6-azaspiro[3.4]octan-8-amine]	5.19
COc1ccc2c(c1)CN(c1cc(NCC3(N)COC3)c3cc(C)ccc3n1)CCS2(=O)=O [Example 1-5, N-[(3-Aminooxetan-3-yl)methyl]-2-(7-methoxy-1,1-dioxido-2,3-dihydro-1,4-benzothiazepin-4(5H)-yl)-6-methylquinolin-4-amine]	0.004
NCCCNc1cc(N2CCS(=O)(=O)c3ccccc3C2)nc2ccc(O)cc12 [Example 29, 4-[(3-Aminopropyl)amino]-2-(1,1-dioxido-2,3-dihydro-1,4-benzothiazepin-4(5H)-yl)quinolin-6-ol]	0.042
Cc1ccc2nc(N3CCC(F)(F)c4ccccc4C3)cc(N3CCCNCC3)c2c1 [Example 111-2, 2-[4-(1,4-Diazepan-1-yl)-6-methylquinolin-2-yl]-5,5-difluoro-2,3,4,5-tetrahydro-1H-2-benzazepine]	1.34
Cc1cccc2c(NCCCCCCCCCN)cc(N3CCS(=O)(=O)c4ccccc4C3)nc12 [Example 12-3, N-[2-(1,1-Dioxido-2,3-dihydro-1,4-benzothiazepin-4(5H)-yl)-8-methylquinolin-4-yl]nonane-1,9-diamine]	6.26
Cc1ccc2nc(N3CCS(=O)(=O)c4ccccc4C3)cc(N3CCOCC3)c2c1 [Example 9-4, 4-[6-Methyl-4-(morpholin-4-yl)quinolin-2-yl]-2,3,4,5-tetrahydro-1,4-benzothiazepine 1,1-dioxide]	8.87
NCCCNc1cc(N2CCS(=O)(=O)c3ccccc3C2)nc2cc(Cl)ccc12 [Example 9-11, N-[7-Chloro-2-(1,1-dioxido-2,3-dihydro-1,4-benzothiazepin-4(5H)-yl)quinolin-4-yl]propane-1,3-diamine]	0.953
Cc1ccc2nc(N3CCS(=O)(=O)c4ccccc4C3)cc(NCC(=O)O)c2c1 [Example 9-8, N-[2-(1,1-Dioxido-2,3-dihydro-1,4-benzothiazepin-4(5H)-yl)-6-methylquinolin-4-yl]glycine]	3.48
Cc1ccc2nc(N3CCS(=O)(=O)c4ccccc4C3)cc(NC3CCNC3)c2c1 (stereo not shown) [Example 21-4, 2-(1,1-Dioxido-2,3-dihydro-1,4-benzothiazepin-4(5H)-yl)-6-methyl-N-(pyrrolidin-3-yl)quinolin-4-amine]	0.004
Cc1ccc2nc(N3CCS(=O)(=O)c4ccccc4C3)cc(NCCc3nn[nH]n3)c2c1 [Example 84, 2-(1,1-Dioxido-2,3-dihydro-1,4-benzothiazepin-4(5H)-yl)-6-methyl-N-[2-(1H-tetrazol-5-yl)ethyl]quinolin-4-amine]	2.96
Cc1ccc2nc(N3CCS(=O)(=O)c4ccccc4C3)cc(NC3=NCCN3)c2c1 [Example 7, N-(4,5-Dihydro-1H-imidazol-2-yl)-2-(1,1-dioxido-2,3-dihydro-1,4-benzothiazepin-4(5H)-yl)-6-methylquinolin-4-amine]	1.42
Cc1ccc2c(c1)S(=O)(=O)CCN(c1cc(NCC3(N)COC3)c3cc(C)ccc3n1)C2 [Example 2-5, N-[(3-Aminooxetan-3-yl)methyl]-6-methyl-2-(8-methyl-1,1-dioxido-2,3-dihydro-1,4-benzothiazepin-4(5H)-yl)quinolin-4-amine]	0.006
Cc1ccc2nc(N3CCS(=O)(=O)c4ccccc4C3)cc(NCCCCCCCCCO)c2c1 [Example 12-6, 9-{[2-(1,1-Dioxido-2,3-dihydro-1,4-benzothiazepin-4(5H)-yl)-6-methylquinolin-4-yl]amino}nonan-1-ol]	9.21
COC(C)(C)C(=O)Nc1cc(N2CCS(=O)(=O)c3ccccc3C2)nc2ccc(C)cc12 [Example 41, N-[2-(1,1-Dioxido-2,3-dihydro-1,4-benzothiazepin-4(5H)-yl)-6-methylquinolin-4-yl]-2-methoxy-2-methylpropanamide]	2.63
Cc1ccc2nc(N3CCS(=O)(=O)c4ccccc4C3)cc(NC3COC3)c2c1 [Example 3-47, 2-(1,1-Dioxido-2,3-dihydro-1,4-benzothiazepin-4(5H)-yl)-6-methyl-N-(oxetan-3-yl)quinolin-4-amine]	0.101

SMILES	EC50 [µM]
COc1ccc2c(c1)CN(c1cc(NCC3(CNC(C)=O)COC3)c3cc(C)ccc3n1)CCS2(=O)=O [Example 3-6, N-{[3-({[2-(7-Methoxy-1,1-dioxido-2,3-dihydro-1,4-benzothiazepin-4(5H)-yl)-6-methylquinolin-4-yl]amino}methyl)oxetan-3-yl]methyl}acetamide]	0.058
NCCNc1cc(N2CCS(=O)(=O)c3ccccc3C2)nc2ccc([N+](=O)[O-])cc12 [Example 9-20, N-[2-(1,1-Dioxido-2,3-dihydro-1,4-benzothiazepin-4(5H)-yl)-6-nitroquinolin-4-yl]ethane-1,2-diamine]	0.76
NCCNc1cc(N2CCS(=O)(=O)c3ccccc3C2)nc2ccc(CO)cc12 [Example 10, {4-[(2-Aminoethyl)amino]-2-(1,1-dioxido-2,3-dihydro-1,4-benzothiazepin-4(5H)-yl)quinolin-6-yl}methanol]	0.003
O=S1(=O)CCN(c2cc(NCC3(NCc4ccccc4)COC3)c3cc(Cl)ccc3n2)Cc2cc(F)ccc21 [Example 3-2, N-{[3-(Benzylamino)oxetan-3-yl]methyl}-6-chloro-2-(7-fluoro-1,1-dioxido-2,3-dihydro-1,4-benzothiazepin-4(5H)-yl)quinolin-4-amine]	3.05
Cc1cccc2nc(N3CCS(=O)(=O)c4ccccc4C3)cc(NCCCN)c12 [Example 17-6, N-[2-(1,1-Dioxido-2,3-dihydro-1,4-benzothiazepin-4(5 H)-yl)-5-methylquinolin-4-yl]propane-1,3-diamine]	0.086
NC1=N[C@@H](CCc2cc(N3CCCc4ccccc4C3)nc3ccccc23)CO1 [Example 131, (4S)-4-{2-[2-(1,3,4,5-Tetrahydro-2H-2-benzazepin-2-yl)quinolin-4-yl]ethyl}-4,5-dihydro-1,3-oxazol-2-amine]	2.52
Cc1ccc2nc(N3CCS(=O)(=O)c4ccccc4C3)cc(NC[C@H](N)CO)c2c1 [Example 37-1, (2S)-2-Amino-3-{[2-(1,1-dioxido-2,3-dihydro-1,4-benzothiazepin-4(5H)-yl)-6-methylquinolin-4-yl]amino}propan-1-ol]	0.005
Cc1ccc2nc(N3CCS(=O)(=O)c4ccccc4C3)cc(NCCCCCCN)c2c1 [Example 3-56, N-[2-(1,1-Dioxido-2,3-dihydro-1,4-benzothiazepin-4(5H)-yl)-6-methylquinolin-4-yl]hexane-1,6-diamine]	0.716
Cc1ccc2nc(N3CCS(=O)(=O)c4c(F)cccc4C3)cc(NCC3(N)COC3)c2c1 [Example 1-4, N-[(3-Aminooxetan-3-yl)methyl]-2-(9-fluoro-1,1-dioxido-2,3-dihydro-1,4-benzothiazepin-4(5H)-yl)-6-methylquinolin-4-amine]	0.004
NCCNc1cc(N2CCCc3ccccc3C2)nc2ccc(OC(F)F)cc12 [Example 118-18, N-[6-(Difluoromethoxy)-2-(1,3,4,5-tetrahydro-2H-2-benzazepin-2-yl)quinolin-4-yl]ethane-1,2-diamine]	0.973
Cc1ccc2nc(N3CCS(=O)(=O)c4ccccc4C3)cc(NCCCCCCCN)c2c1 [Example 3-30, N-[2-(1,1-Dioxido-2,3-dihydro-1,4-benzothiazepin-4(5H)-yl)-6-methylquinolin-4-yl]heptane-1,7-diamine]	7.81
Cc1cccc2c(NCCCCCCCCN)cc(N3CCS(=O)(=O)c4ccccc4C3)nc12 [Example 12-7, N-[2-(1,1-Dioxido-2,3-dihydro-1,4-benzothiazepin-4(5H)-yl)-8-methylquinolin-4-yl]octane-1,8-diamine]	0.226
Cc1ccc2nc(N3CCS(=O)(=O)c4ccccc4C3)cc(S(=O)(=O)c3ccccc3)c2c1 [Example 102, 4-[6-Methyl-4-(phenylsulfonyl)quinolin-2-yl]-2,3,4,5-tetrahydro-1,4-benzothiazepine 1,1-dioxide]	9.76
Cc1ccc2nc(N3CCS(=O)(=O)c4cc(F)ccc4C3)cc(NCC3(N)COC3)c2c1 [Example 1-2, N-[(3-Aminooxetan-3-yl)methyl]-2-(8-fluoro-1,1-dioxido-2,3-dihydro-1,4-benzothiazepin-4(5H)-yl)-6-methylquinolin-4-amine]	0.007
Cc1ccc2nc(N3CCS(=O)(=O)c4ccccc4C3)cc(-c3cc[nH]n3)c2c1 [Example 101, 4-[6-Methyl-4-(1H-pyrazol-3-yl)quinolin-2-yl]-2,3,4,5-tetrahydro-1,4-benzothiazepine 1,1-dioxide]	8.58
Cc1ccc2nc(N3CCS(=O)(=O)c4ccccc4C3)cc(NCC(F)(F)C(F)(F)CN)c2c1 [Example 3-43, N-[2-(1,1-Dioxido-2,3-dihydro-1,4-benzothiazepin-4(5H)-yl)-6-methylquinolin-4-yl]-2,2,3,3-tetrafluorobutane-1,4-diamine]	2.39
